According to patent US20250136593A1, “DEGRADATION AGENT AND USE THEREOF” (HITGEN INC., priority 2021, published 2025):
pIC50: −log10 of the molar value.

Key:
[1] = target: T1, BCL-XL protein in MOLT-4 cells (Homo sapiens, UniProt Q07817); assay: Degradation effect on BCL-XL protein in MOLT-4 cells by Western Blot; type: cell-based; conditions: 24 hours incubation, corrected by β-actin, read-out: DC50 concentration for BCL-XL protein degradation
T1 construct: host or cells: MOLT-4
Method: Experimental Example 6. Experiment to Evaluate Degradation Effect of Compound on BCL-XL Protein in MOLT-4 Cells by Western Blot Method
SDS-PAGE gel (4-12%) (Genscript), PMSF 100 mM (Biyotime), Cocktail 100× (Biyotime), P/S, RPMI medium modified (Hyclone), FBS (Corning), 4× loading buffer (Thermo), Bcl-xL (54H6) Rabbit mAb (CST), Anti-rabbit IgG-HRP (CST), Anti-β-actin-HRP (Abcam), RIPA (Biyotime), Tween-20, MOLT-4 cell (ATCC), BCA Protein Assay Kit (TIANGEN), Immobilon Western Chemilunescent HRP Substrate (Millipore).
1) Incubation of compound and cells: 1 mL of 10^6 MOLT-4 cells (culture medium: 89% RPMI, 10% FBS, 1% P/S) was inoculated in a 6-well cell culture plate, the compound was subjected to gradient dilution with DMSO, then the compound diluted in DMSO in gradient was diluted again into the MOLT-4 medium, and 1 mL of the diluted compound was directly added to the 6-well plate with the cultured cells and incubated for 24 hours.
2) Protein extraction: After the compound and the cells were co-incubated for 24 hours, the cells were collected and placed in a 1.5 mL centrifuge tube, washed twice with ice-cold PBS, the supernatant was discarded, then 150 μL of RIPA lysis buffer was added and lysis was carried out on ice for 30 minutes; then the cell lysate was centrifuged in a low-temperature centrifuge at 15,000 rpm for 10 minutes, and the supernatant was collected; and BCA Protein Assay Kit was used to quantify the protein in the resulting cell lysate supernatant. 4× loading buffer was added to the cell lysate supernatant and incubated at 85° C. for 10 minutes to obtain a sample. The obtained sample was stored in −80° C. refrigerator for the use on the next day. 20 μg of the sample was taken to perform SDS-Page and transmembrane, 5% skim milk was used to block the membrane for 1 hour, and then Bcl-xL (54H6) rabbit mAb, Anti-rabbit IgG-HRP, Anti-β-actin-HRP were used for incubation. After incubation, Immobilon Western Chemiluminescent HRP Substrate was used for color development, and a gel analyzer was used for analysis.
Analysis was performed with a grayscale analysis software, the amount of BCL-XL protein was corrected by the amount of β-actin, and then Graphpad 6 was used to calculate DC50.

MOLT-4 cells = assay: Inhibitory activity on MOLT4 cell proliferation by Cell Titer-Glo method; type: cell-based; conditions: Homo sapiens, 72 hours incubation, read-out: IC50 concentration for inhibiting MOLT-4 cells
Method: Experimental Example 5, Evaluation Experiment of Inhibitory Activity of Compound on MOLT4 Cell Proliferation by Cell Titer-Glo Method
RPMI medium modified (Hyclone), FBS (Corning), Dimethyl Sulfoxide, P/S, CellTiter-Gbo Luminescent Cell Viability Assay (Promega), MOLT-4 cell (ATCC).
MOLT-4 cells were cultured in monolayer in vitro in an incubator containing 5% CO2 air at 37° C. The culture medium was RPMI 1640 with 10% FBS and 1% P/S. 15 μL of MOLT4 cells, containing 5×10^4 cells per ml, was inoculated to a 384-well plate (Corning, 3707), 750 cells/well, and incubated at 37° C. and 5% CO2 for 30 minutes. Then the compound that had been diluted in advance was added, with a total of 9 concentration points, and 2 parallel repetitions for each concentration point. The cell growing group without adding the compound was used as a negative control (maximum signal control), and the culture medium group was used as a blank control (minimum signal control). At the same time, it was ensured that the final DMSO content in each reaction well was 0.1%. The compound and the cells were incubated in a cell culture incubator at 37° C., 5% CO2 for 3 days (72 hours).
The 384-well plate was taken out from the cell culture incubator and allowed to stand at room temperature, equilibrated for 20 to 30 minutes, and then 25 μl of Cell Titer-Glo detection reagent was added to each reaction well, lysed on a shaker for 2 minutes, incubated for 10 minutes, and BMG PHERAStar (Luminescence) was used for reading.
The inhibition rate was calculated based on the luminescence signals: the average value of the negative control (maximum signal control) and the blank control (minimum signal control) was first calculated, then the inhibition rates of the compound at different concentrations for the cells were calculated as follows:
The IC50 of the compound to inhibit cell activity was calculated by fitting with GraphPad Prism 6 using log(inhibitor) vs. response−Variable slope mode. The fitting equation was: Y=Bottom+(Top−Bottom)/(1+10^((LogIC50−X)*HillSlope)), wherein Y represented the inhibition rate and X represented the known compound concentration after Log.

[2] = target: ternary complex between BCL-XL and CRBN-DDB1 (Homo sapiens, UniProt Q07817+Q96SW2); assay: Compound-induced formation of ternary complex between BCL-XL and CRBN-DDB1 by AlphaLISA; type: biochemical; set-up: key: the number of + indicates the intensity of AlphaLISA peak signal; ++: the number of + indicates the intensity of AlphaLISA peak signal; +++: the number of + indicates the intensity of AlphaLISA peak signal; ++++: the number of + indicates the intensity of AlphaLISA peak signal; +++++: the number of + indicates the intensity of AlphaLISA peak signal; conditions: peak signal; 60 nM Strep-BCL-XL and 60 nM His-CRBN/DDB1
Method: Experimental Example 4, Detection of Compound-Induced Formation of Ternary Complex Between BCL-XL and CRBN-DDB1 by AlphaLISA Method
Na2HPO4(Sigma), NaH2PO4(Sigma), sodium chloride (Sigma), Tween-20 (Sigma), AlphaLISA®Nikel Chelate Acceptor beads (PerkinElmer), Strep-Tactin® Alpha Donor beads (PerkinElmer), Assay plate (Corning), Strep-BCl-XL (HitGen), His-CRBN/DDB1 (HitGen).
DMSO was used to dissolve the dry powder of the test compound to obtain a 10.00 mM solution. The instrument ECHO was used to perform gradient dilution of the compound, which was then added to a 384-well reaction plate (Corning, Cat #3824), so that the final concentration of DMSO in the entire reaction system (10.0 μL) was less than 1%, and the same amount of DMSO was added and used as a control.
Strep-BCl-XL and His-CRBN/DDB1 proteins were dissolved in buffer (10 mM NaH2PO4, 40 mM Na2HPO4, 150 mM sodium chloride, 0.03% Tween20, pH=7.4) to obtain a protein mixture of 60 nM Strep-BCL-XL and 60 nM His-CRBN/DDB1, the protein mixture (5ul/well) was added to the 384-well plate in which the compound had been added, and incubated at room temperature for 30 minutes, then 5 μl of a detection mixture with 50 μg/ml AlphaLISA®Nikel Chelate Acceptor beads and 50 μg/ml Strep-Tactin® Alpha Donor beads was added, and incubated at room temperature for 2 hours; and then a microplate reader was used to detect AlphaLISA signal.
Fifth order polynomial or Sixth order polynomial in Polynomial of Graphpad 6.0 was used for data fitting.

T1 sequence (Q07817 whole entry): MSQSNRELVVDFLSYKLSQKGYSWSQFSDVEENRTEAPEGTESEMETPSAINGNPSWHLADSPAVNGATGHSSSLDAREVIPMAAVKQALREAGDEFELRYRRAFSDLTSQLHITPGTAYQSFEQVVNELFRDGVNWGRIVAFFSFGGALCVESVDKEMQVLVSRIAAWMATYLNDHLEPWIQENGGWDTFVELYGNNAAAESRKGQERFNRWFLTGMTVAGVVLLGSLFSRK
Sequence of ternary complex between BCL-XL and CRBN-DDB1 (Q07817 whole entry): as above
Sequence of ternary complex between BCL-XL and CRBN-DDB1 (Q96SW2 whole entry): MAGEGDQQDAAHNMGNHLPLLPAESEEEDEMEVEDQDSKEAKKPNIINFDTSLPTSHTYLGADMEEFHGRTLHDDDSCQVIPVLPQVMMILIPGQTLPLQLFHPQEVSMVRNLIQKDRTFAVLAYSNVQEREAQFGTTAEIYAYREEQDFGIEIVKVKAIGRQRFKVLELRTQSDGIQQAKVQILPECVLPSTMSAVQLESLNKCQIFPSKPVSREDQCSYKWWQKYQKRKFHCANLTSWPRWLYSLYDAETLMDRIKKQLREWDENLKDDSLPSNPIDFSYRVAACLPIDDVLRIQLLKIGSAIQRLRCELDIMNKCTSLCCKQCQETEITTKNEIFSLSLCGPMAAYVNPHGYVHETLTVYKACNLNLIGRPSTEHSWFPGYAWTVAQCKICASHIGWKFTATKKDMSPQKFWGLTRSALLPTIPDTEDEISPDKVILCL
Sequence of ternary complex between BCL-XL and CRBN-DDB1 (Q16531 whole entry partner): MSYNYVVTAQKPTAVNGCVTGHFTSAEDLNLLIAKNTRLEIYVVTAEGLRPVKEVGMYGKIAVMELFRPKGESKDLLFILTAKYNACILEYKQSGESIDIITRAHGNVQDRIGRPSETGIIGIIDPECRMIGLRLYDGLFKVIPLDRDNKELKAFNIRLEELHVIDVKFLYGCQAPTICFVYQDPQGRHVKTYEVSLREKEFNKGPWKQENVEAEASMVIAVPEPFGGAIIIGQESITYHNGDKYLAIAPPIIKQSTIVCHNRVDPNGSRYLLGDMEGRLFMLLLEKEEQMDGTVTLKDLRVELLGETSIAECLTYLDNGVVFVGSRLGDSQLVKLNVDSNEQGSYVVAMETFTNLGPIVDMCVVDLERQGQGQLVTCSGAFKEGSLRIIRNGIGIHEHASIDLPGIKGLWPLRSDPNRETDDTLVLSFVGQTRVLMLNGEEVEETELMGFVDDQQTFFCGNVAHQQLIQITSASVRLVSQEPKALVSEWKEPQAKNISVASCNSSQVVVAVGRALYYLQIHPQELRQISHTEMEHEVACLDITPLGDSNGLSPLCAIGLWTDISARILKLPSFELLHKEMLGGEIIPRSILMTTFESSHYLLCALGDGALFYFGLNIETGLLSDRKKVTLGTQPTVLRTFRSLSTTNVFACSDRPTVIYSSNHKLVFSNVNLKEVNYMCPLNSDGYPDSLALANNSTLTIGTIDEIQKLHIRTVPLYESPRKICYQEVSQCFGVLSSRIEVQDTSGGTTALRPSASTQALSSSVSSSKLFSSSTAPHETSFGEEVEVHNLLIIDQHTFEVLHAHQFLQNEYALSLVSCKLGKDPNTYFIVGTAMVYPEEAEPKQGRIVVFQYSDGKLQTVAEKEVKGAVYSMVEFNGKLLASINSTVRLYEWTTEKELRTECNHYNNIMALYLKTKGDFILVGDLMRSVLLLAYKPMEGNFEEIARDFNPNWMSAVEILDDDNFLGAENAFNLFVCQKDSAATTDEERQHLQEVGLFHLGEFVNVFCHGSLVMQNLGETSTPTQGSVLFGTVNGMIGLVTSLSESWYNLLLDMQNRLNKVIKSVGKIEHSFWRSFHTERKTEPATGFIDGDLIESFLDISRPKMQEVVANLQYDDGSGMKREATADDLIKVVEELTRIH

Compound	DC50 [1]	pIC50 (MOLT-4 cells)	AlphaLISA signal (PROTAC ternary complex signal intensity) [2]
CNc1nc(-c2cnc3ccccc3c2)nc2c1CCN(C(=O)c1ccc(/C=C/c3ccc(C#CCN4CCN(CCC#Cc5cccc(C6CCC(=O)NC6=O)c5)CC4)cc3)cc1)C2 (centres unmarked) [Compound D2-15]	1000 to 10000 nM	> 6.00	–
O=C1CCC(N2C(=O)c3ccc(N4CCN(CC5CCN(CC#Cc6ccc(/C=C/c7ccc(C(=O)N8CCc9cnc(-c%10cnc%11ccccc%11c%10)nc9C8)cc7)cc6)CC5)CC4)cc3C2=O)C(=O)N1 (centres unmarked) [Compound F1B-2]	50000 to 100000 nM	4.00 to 4.30	+
CNc1nc(-c2cnc3ccccc3c2)nc2c1CCN(C(=O)c1ccc(/C=C/c3ccc(C#CCN4CCC(CN5CCN(c6cc7c(cc6F)C(=O)N(C6CCC(=O)NC6=O)C7=O)CC5)CC4)cc3)cc1)C2 (centres unmarked) [Compound F1B-3]	1000 to 10000 nM	4.00 to 4.30	–
O=C1CCC(N2Cc3cc(N4CCC(CN5CCN(CC#Cc6ccc(/C=C/c7ccc(C(=O)N8CCc9cnc(-c%10cnc%11ccccc%11c%10)nc9C8)cc7)cc6)CC5)CC4)ccc3C2=O)C(=O)N1 (centres unmarked) [Compound F2-4]	1000 to 10000 nM	5.00 to 6.00	++
CNc1nc(-c2cnc3ccccc3c2)nc2c1CCN(C(=O)c1ccc(/C=C/c3ccc(C#CCN4CCN(CC5CCN(c6ccc7c(c6)CN(C6CCC(=O)NC6=O)C7=O)CC5)CC4)cc3)cc1)C2 (centres unmarked) [Compound F2-8]	< 1000 nM	5.00 to 6.00	–
O=C1CCC(N2Cc3cc(N4CCC(CN5CCN(CC#Cc6ccc(OCC78CC(C(=O)N9CCc%10cnc(-c%11cnc%12ccccc%12c%11)nc%10C9)(C7)C8)cc6)CC5)CC4)ccc3C2=O)C(=O)N1 (centres unmarked) [Compound F2-9]	1000 to 10000 nM	4.00 to 4.30	–
CNc1nc(-c2cnc3ccccc3c2)nc2c1CCN(C(=O)c1ccc(/C=C/c3ccc(C#CCN4CCN(CC5CCN(c6ccc7c(c6)C(=O)N(C6CCC(=O)NC6=O)C7=O)CC5)CC4)cc3)cc1)C2 (centres unmarked) [Compound F2-11]	1000 to 10000 nM	4.00 to 4.30	–
O=C1CCC(N2Cc3c(CN4CC5(C4)CN(C4CCN(CC#Cc6ccc(/C=C/c7ccc(C(=O)N8CCc9cnc(-c%10cnc%11ccccc%11c%10)nc9C8)cc7)cc6)CC4)C5)cccc3C2=O)C(=O)N1 (centres unmarked) [Compound F3B-3]	< 1000 nM	5.00 to 6.00	++
CNc1nc(-c2cnc3ccccc3c2)nc2c1CCN(C(=O)c1ccc(/C=C/c3ccc(C#CCN4CCN(C(=O)CC(=O)N[C@H](C(=O)N5C[C@H](O)C[C@H]5C(=O)N[C@@H](C)c5ccc(-c6scnc6C)cc5)C(C)(C)C)CC4)cc3)cc1)C2 [Compound G2-1]	–	< 3.70	++
CNc1nc(-c2cnc3ccccc3c2)nc2c1CCN(C(=O)c1ccc(/C=C/c3ccc(C#CCN4CCN(CCC#Cc5cccc(N6CCC(=O)NC6=O)c5)CC4)cc3)cc1)C2 [Compound H1-1]	< 1000 nM	> 6.00	–
